Measurements: the Kinase Knowledgebase extract (Sharma et al. 2016)
pIC50: −log10 of the molar value.

Key:
[1] = molecular target: EGFR (human), P00533 [Inhibition of Proliferation of EGFR(WT, k-Ras mutation) in A549 Cells]
[2] = molecular target: EGFR (human), P00533 [WT]; settings: hl-7702
EGFR (human) = EGFR (human) (UniProt P00533); settings: a431
[3] = molecular target: EGFR (Human), P00533 [T790M/L858R]; settings: h1975
Sequence of EGFR (Human), P00533 [T790M/L858R] (P00533 whole entry T790M/L858R, looked up): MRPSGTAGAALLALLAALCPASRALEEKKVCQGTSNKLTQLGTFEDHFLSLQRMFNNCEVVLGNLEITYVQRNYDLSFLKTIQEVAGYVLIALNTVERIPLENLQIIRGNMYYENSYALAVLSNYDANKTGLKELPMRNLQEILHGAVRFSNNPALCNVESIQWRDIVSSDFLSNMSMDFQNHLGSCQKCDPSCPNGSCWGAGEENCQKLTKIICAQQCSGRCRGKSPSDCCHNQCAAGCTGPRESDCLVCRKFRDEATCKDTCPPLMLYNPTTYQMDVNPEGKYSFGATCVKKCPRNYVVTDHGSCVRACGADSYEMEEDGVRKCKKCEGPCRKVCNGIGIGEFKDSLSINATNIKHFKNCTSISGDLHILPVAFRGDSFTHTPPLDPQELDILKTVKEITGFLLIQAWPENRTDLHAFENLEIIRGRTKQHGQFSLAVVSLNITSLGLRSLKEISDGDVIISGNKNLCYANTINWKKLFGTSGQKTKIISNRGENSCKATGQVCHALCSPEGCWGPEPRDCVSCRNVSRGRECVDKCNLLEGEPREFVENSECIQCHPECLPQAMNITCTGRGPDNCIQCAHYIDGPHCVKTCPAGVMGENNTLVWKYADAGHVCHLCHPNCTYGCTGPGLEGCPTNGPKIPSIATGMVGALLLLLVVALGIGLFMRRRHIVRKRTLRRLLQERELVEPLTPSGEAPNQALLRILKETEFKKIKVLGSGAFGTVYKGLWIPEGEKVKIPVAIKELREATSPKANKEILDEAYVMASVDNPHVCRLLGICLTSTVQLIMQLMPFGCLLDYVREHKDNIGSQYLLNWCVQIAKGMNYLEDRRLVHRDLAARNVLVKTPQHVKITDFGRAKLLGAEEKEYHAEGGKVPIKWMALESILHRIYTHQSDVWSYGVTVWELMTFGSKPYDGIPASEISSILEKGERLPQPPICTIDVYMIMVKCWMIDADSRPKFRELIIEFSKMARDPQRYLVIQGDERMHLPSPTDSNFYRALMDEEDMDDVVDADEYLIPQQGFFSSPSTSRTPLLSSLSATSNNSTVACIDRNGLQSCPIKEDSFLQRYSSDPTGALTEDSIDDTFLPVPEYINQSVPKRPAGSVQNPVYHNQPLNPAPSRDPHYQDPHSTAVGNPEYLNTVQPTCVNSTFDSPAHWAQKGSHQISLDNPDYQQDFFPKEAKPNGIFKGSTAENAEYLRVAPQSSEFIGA

Sequence of EGFR (human), P00533 [WT] (P00533 whole entry, looked up): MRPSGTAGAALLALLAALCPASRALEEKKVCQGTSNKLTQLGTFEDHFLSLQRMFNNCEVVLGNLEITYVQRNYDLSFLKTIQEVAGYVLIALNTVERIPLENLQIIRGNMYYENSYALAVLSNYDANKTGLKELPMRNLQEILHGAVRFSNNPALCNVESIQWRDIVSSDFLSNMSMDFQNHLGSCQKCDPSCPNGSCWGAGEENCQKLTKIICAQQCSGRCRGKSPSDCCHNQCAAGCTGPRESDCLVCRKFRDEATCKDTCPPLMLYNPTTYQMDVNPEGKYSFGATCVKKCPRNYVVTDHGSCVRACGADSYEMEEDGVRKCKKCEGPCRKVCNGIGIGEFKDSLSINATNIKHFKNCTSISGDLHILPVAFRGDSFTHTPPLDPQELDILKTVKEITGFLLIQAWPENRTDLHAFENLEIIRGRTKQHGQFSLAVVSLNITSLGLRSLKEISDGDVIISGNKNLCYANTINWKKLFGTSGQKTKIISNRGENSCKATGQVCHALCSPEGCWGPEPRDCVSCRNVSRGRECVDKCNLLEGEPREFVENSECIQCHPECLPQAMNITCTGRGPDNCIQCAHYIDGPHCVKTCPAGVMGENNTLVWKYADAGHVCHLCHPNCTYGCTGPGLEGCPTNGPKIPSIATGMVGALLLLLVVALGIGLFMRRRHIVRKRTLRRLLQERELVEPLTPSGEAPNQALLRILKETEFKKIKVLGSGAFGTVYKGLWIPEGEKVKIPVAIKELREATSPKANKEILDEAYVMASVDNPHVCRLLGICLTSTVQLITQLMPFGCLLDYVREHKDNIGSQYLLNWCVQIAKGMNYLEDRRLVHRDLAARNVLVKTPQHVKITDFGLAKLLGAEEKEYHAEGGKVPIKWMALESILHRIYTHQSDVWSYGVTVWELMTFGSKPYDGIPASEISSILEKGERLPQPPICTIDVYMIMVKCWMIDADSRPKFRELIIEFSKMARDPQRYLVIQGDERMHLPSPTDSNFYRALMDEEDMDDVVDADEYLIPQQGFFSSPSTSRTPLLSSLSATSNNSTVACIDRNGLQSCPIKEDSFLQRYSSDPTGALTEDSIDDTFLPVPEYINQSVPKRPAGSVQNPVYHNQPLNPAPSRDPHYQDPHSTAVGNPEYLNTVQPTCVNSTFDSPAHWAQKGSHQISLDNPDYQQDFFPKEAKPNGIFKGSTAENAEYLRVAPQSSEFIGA
Sequence of EGFR (human) (P00533 whole entry, looked up): as above
Sequence of EGFR (human), P00533 [Inhibition of Proliferation of EGFR(WT, k-Ras mutation) in A549 Cells] (P00533 whole entry, looked up, change not shown): as the sequence (P00533 whole entry, looked up) above

SMILES	pIC50 [1]	pIC50 [2]	pIC50 (EGFR (human))	pIC50 [3]
C=CC(=O)Nc1cccc(N2C(=O)N(C)Cc3cnc(Nc4ccc(N5CCCN(C)CC5)cc4OC)nc32)c1	< 4.70	< 5.00		
C=CC(=O)Nc1cccc(N2C(=O)N(c3ccc(Oc4ccccc4)cc3)Cc3cnc(Nc4ccc(N5CCN(C)CC5)cc4OC)nc32)c1		< 5.00		
C=CC(=O)Nc1cccc(N2C(=O)N(C)Cc3cnc(Nc4ccc(N5CCN(C)CC5)cc4F)nc32)c1			< 5.00	
C=CC(=O)Nc1cccc(N2C(=O)N(C)Cc3cnc(Nc4ccc(N(C)C)cc4OC)nc32)c1	< 4.70	< 5.00		
C=CC(=O)Nc1cccc(N2C(=O)N(C)Cc3cnc(Nc4ccc(N5CCN(C)CC5)cc4C)nc32)c1		< 5.00		
COc1cc(N2CCN(C)CC2)ccc1Nc1ncc2c(n1)N(c1cccc(N)c1)C(=O)N(C)C2		< 5.00	< 5.00	< 4.70
C=CC(=O)Nc1cccc(N2C(=O)N(C)Cc3cnc(Nc4ccc(N5CCN(C)CC5)cc4OC(C)C)nc32)c1		< 5.00		
CCC(=O)Nc1cccc(N2C(=O)N(C)Cc3cnc(Nc4ccc(N5CCN(C)CC5)cc4OC)nc32)c1	< 4.52	< 5.00	< 5.00	< 4.70
C=CC(=O)Nc1cccc(N2C(=O)N(C)Cc3cnc(Nc4ccccc4)nc32)c1		< 5.00		
C=CC(=O)Nc1cccc(N2C(=O)N(C)Cc3cnc(NC)nc32)c1	< 4.70	< 5.00	< 5.00	
C=CC(=O)Nc1cccc(N2C(=O)N(C)Cc3cnc(Nc4ccc(N5CCN(C)CC5)cc4OC)nc32)c1		< 5.00		
C=CC(=O)Nc1cccc(N2C(=O)N(C)Cc3cnc(Nc4ccc(N5CCN(C)CC5)cc4OCC)nc32)c1		< 5.00		
C=CC(=O)Nc1cccc(N2C(=O)N(C)Cc3cnc(Nc4ccc(N5CCOCC5)cc4OC)nc32)c1		< 5.00	< 5.00	
C=CC(=O)Nc1cccc(N2C(=O)N(C(C)C)Cc3cnc(Nc4ccc(N5CCN(C)CC5)cc4OC)nc32)c1		< 5.00		
C=CC(=O)Nc1cccc(N2C(=O)N(C)Cc3cnc(Nc4ccc(N5CCCCC5)cc4OC)nc32)c1		< 5.00		
C=CC(=O)Nc1cccc(N2C(=O)N(C)Cc3cnc(Nc4ccc(N5CCC(N(C)C)CC5)cc4OC)nc32)c1		< 5.00		
